According to a melting point compilation (Tetko et al.; mined from patent text by program, amines drawn as free bases though some values may be those of a salt):

| melting point [°C] | SMILES |
| --- | --- |
| 85 to 87 | CC(C)(C)OC(=O)Nc1ccc(C2=CCN(C(=O)OC(C)(C)C)CC2)cc1[N+](=O)[O-] |
| 148 to 149 | O=c1c2ccc(Cl)cc2n(Cc2ccccc2)n2c(Br)ccc12 |
| 121 to 123 | COc1ccc(C(=CC#N)c2ccc3ccccc3c2)cc1OC |
| 130 to 131 | COC(=O)C1=C[C@@H](OC(C)C)[C@H](NC(C)=O)[C@@H](CC2CO2)C1 (stereo partly specified) |
| 175 to 176 | CC(C)(C)OC(=O)Nc1scc(C2CC2)c1C(=O)O |
| 155 | N#Cc1ccc(-c2cn(-c3ccc(OC(F)(F)F)cc3)cn2)cc1 |
| 223 to 225 | COc1ccc(CNc2cc(Cn3c(Oc4cc(C)cc(C)c4)c(C(C)C)c(=O)[nH]c3=O)cc(Cl)n2)cc1 |
| > 250 | Nc1nc(S(N)(=O)=O)c2[nH]cnc2n1 |
| 153 to 154 | COC(CC(=O)c1ccc(Br)cc1)C(=O)c1ccc(Br)cc1 (stereo unspecified) |
| 145 | CCS(=O)(=O)c1nnc(N(C(C)=O)C(=O)N(C)C)s1 |
| 93.1 | CN1CCC(=C(c2ccc(F)cc2)c2cccnc2)CC1 |
| 300 | Nc1ccc(C=C2NC(=O)NC2=O)cc1 |
| 65 to 68 | Cc1cc(-c2nc3cc(OC(C)C)cc(OC(C)C)c3c(=O)[nH]2)cc(C)c1OCCN1CCCC1 |
| 121 to 122 | CCOC(=O)Cn1c(=O)n(Cc2ccc(Cl)c(Cl)c2)c(=O)c2ccccc21 |
| 175 to 177 | Cc1ccc(-c2nc(-c3ccc(C(=O)NCCCBr)cc3)cs2)cc1 |
| 107 to 111 | CCCCCCCCCCCCCCCCCC(=O)N1C(CCCCCCCCCCCCCCCCC)NC(=O)CC1C(=O)O (stereo unspecified) |
| 48 to 50 | OCC(COCCCCCCCCOc1ccc(-c2ccccc2)cc1)OCc1ccccc1 (stereo unspecified) |
| 61 to 63 | Cc1cc(Oc2ccc(Cc3ccccc3)cc2)cc(C)c1N |
| 137 to 142 | Cn1c(CC#N)ccc1C(=O)c1ccc(N)cc1 |
| 95.5 to 96.5 | CON(c1ccc([N+](=O)[O-])cc1Cl)S(=O)(=O)c1cccc(C(F)(F)F)c1 |
| 185 to 187 | CS(=O)(=O)Nc1ccc(Sc2cnc(N)s2)cc1 |
| 79 to 81 | COC(=O)c1cc(Cl)cnc1OC |
| 157 to 158 | Nc1cc(Oc2ccc(Oc3cc(N)cc(C(F)(F)F)c3)cc2)cc(C(F)(F)F)c1 |
| 102 to 103 | O=Cc1cc(-c2cccs2)ccc1O |
| 137 to 138 | CCCOc1cc(-c2ccc3cc4c(cc3c2)C(C)(C)CCC4(C)C)ccc1C(=O)O |

| melting point [°C] | SMILES |
| --- | --- |
| 156 to 158 | Ic1cccc(-c2nnc(-c3ccc4ccccc4c3)o2)c1 |
| 169 to 171 | COc1cccc(-c2nc(-c3ccoc3)n[nH]2)c1 |
| 290 to 292 | CCOC(=O)c1cc2c(O)nncc2nc1NC |
| 106 to 107 | CC(=Nc1ccc(NC(=O)[C@@H](N)CC(C)C)cc1)N(C)C |
| 325 to 327 | COc1ccc(-c2cnc(N3Cc4c([nH]c5ccccc5c4=O)C3c3ccc4c(c3)OCO4)nc2)cc1 (stereo unspecified) |
| 136 | CCN(c1cccc(OC)c1)c1nc(=O)c2cccnc2s1 |
| 178 to 180 | CC1=C(c2ccncc2)SC(c2ccco2)C(=O)N1 (stereo unspecified) |
| 232 to 234 | O=C(c1cccc([N+](=O)[O-])c1)n1nc(O)c2ccccc21 |
| 78 to 81 | CC(OC(=O)OC1CCCCC1)OC(=O)C1(C(=O)OC(C)OC(=O)OC2CCCCC2)Oc2ccc(C[C@@H](C)NC[C@H](O)c3cccc(Cl)c3)cc2O1 (stereo partly specified) |
| 101 to 103 | OCc1ccc2c(c1)ncn2-c1cccc(COCc2ccccn2)c1 |
| 158 to 162 | O=Cc1c[nH]c2ccc3c(c12)CC(O)CO3 (stereo unspecified) |
| 80 to 82 | COC(=O)c1cc(N(C)C)c(C(C)(C)C)c(N(C)C)c1 |
| 95 to 97 | CCNC(=O)[C@@H]1C[C@]2(NC(=O)N(CCCCl)C2=O)c2cc(F)ccc2O1 |
| 180 | CCOC(=O)Cc1cc(-c2ccccc2)nc2ccccc12 |
| 135 to 136 | O=C(N[C@@H]1CONC1=O)OCc1ccccc1 |
| 178 | CC(C)N1CCC(=C2c3ccn(C)c3CCn3ccnc32)CC1 |
| 244 to 245 | c1cc(-c2ccnc3nccn23)ccn1 |
| 213 to 214 | CC(=O)NCC1CN(c2cc(F)c(N3CCN(C(=O)COC(=O)c4cccnc4)CC3)c(F)c2)C(=O)O1 (stereo unspecified) |
| 236 to 237 | CN1C(=O)c2cncnc2Nc2ccccc21 |
| 59 to 60 | Nc1ccc(Sc2ccccc2)cc1Cl |
| > 280 | O=C(Nc1nc(-c2cc(Cl)nc(Cl)c2)cs1)NS(=O)(=O)c1ccccc1C(F)(F)F |
| 117 to 118 | CN(C)C=CC(=O)c1ccc(I)cc1 |
| 236 to 240 | CC(=C1SC(=O)NC1=O)c1cccc(OCCOc2c(-c3ccc(F)c(F)c3)n(C)c3ccccc3c2=O)c1 |
| 162 to 164 | COc1ccc2c(c1)CCc1cn[nH]c1-2 |
| 159 to 160 | COc1ccc(N(CCCC(=O)O)C(=O)C(C)N(C(=O)c2ccc(Cl)cc2Cl)c2ccc(OC)cc2)cc1 (stereo unspecified) |

| melting point [°C] | SMILES |
| --- | --- |
| 83 to 85 | O=C(CCCCCCOc1ccccc1)c1nnc(CO)o1 |
| 144 to 145 | CC1(C)CC(c2ccc(Cl)cc2)=C(c2ccc(S(N)(=O)=O)cc2)C1 |
| 85 to 86.5 | CN(C)CCOc1ccc2c(c1)Cc1cc(OCCN(C)C)ccc1O2 |
| 83.9 to 84.4 | O=[N+]([O-])c1ccc(C=NCCc2cccs2)cc1 |
| 209 to 210 | COc1ccc(F)cc1C(=O)NC1COc2cc(OC)c(S(N)(=O)=O)cc2C1 (stereo unspecified) |
| 61 to 63 | CCCCCCCCCCCCCCCCNc1ccc(C(=O)OCCCCO)cc1 |
| 97 to 98 | CN1CCN(C(=O)C(C)(C)OCc2nn(Cc3ccccc3)c3ccccc23)CC1 |
| 134 to 137 | Cc1nc(C)c(Cl)c(NCc2nccc(SCCCSCCO)c2C)n1 |
| 232 to 235 | CSc1c(C(=O)NN=Cc2ccc(Cl)cc2)[nH]c2ccccc12 |
| > 230 | CCOc1ccc(C(=O)NCCc2ccc(S(=O)(=O)NC(=O)c3ccc(C(=O)NCC(=O)O)nc3)cc2)cc1OCC |
| 118 | O=C(NC(Cc1c[nH]c2ccccc12)C(=O)OCc1cccc(C(F)(F)F)c1)c1ccccc1 (stereo unspecified) |
| 279 to 281 | COc1ccc(Cl)c2oc(-c3ccc(S(N)(=O)=O)cc3)c(-c3ccc(F)cc3)c(=O)c12 |
| 199 to 200 | CCC(=O)NCc1cccc(-c2nc(=O)c3ccccc3s2)n1 |
| 232 to 234 | O=C(CN1c2nc(-c3ccncc3)cc(=O)n2CCC12CC2)c1ccccc1 |
| 114 to 116 | CC1CCCCN1C(=O)C=Cc1ccc(F)cc1 (stereo unspecified) |
| 116 to 117 | CNC(=S)C1(c2ccc(Cl)c(Cl)c2)CCCCS1 (stereo unspecified) |
| 127 | Cc1csc2nc3ccc(C(F)(F)F)cc3n12 |
| 197 to 199 | COc1ccc(NC(=O)c2ccc(Cl)c(Cl)c2)cc1NCc1cccc(F)c1 |
| 214 to 215 | CCOC(=O)n1c(C(=O)c2cncnc2)c(NC(C)=O)c2ccc(Cl)cc21 |
| 130 | N#Cc1ncccc1C(=O)OCc1csc(-c2cccc(Cl)c2)n1 |
| 212 to 213 | O=C1CCC(=O)N1CC(=O)N1c2ccccc2N(Cc2ccccc2)C(=O)[C@H]2CCC[C@H]21 (relative stereo) |
| 160 to 161 | N#CCCNC(=O)C1=C(C(=O)Nc2ccc(Cl)cc2F)CCCC1 |
| 218 to 220 | CC(C)(c1ccc2ncccc2c1)n1nnc2ccc(-c3cn[nH]c3)nc21 |
| 169 to 170 | CCn1cc(CN(C(=O)C2CCCc3ccc(O)cc32)c2ccc(C(C)C)cc2)cn1 (stereo unspecified) |
| 220 to 222 | CSc1ccccc1-c1ccc(C(=O)O)cc1 |

| melting point [°C] | SMILES |
| --- | --- |
| 133 to 134 | COc1ccc(C(=O)Cc2c(Cl)cncc2Cl)c2c1OC(C)(C)O2 |
| 137 to 139 | COc1cc(NCCCCCCN2CCCN(C)CC2)c2nccc(C)c2c1 |
| 133 to 135 | Cn1cc(-c2cccc(Cl)c2)c(=O)c(-c2cccc(C(F)(F)F)c2)c1 |
| 156 to 158 | O=C(Nc1ccc(-n2nc(C(F)(F)F)cc2C(F)(F)F)cc1)c1ccc(Cl)cc1F |
| 172 to 175 | COc1cc(CO)c([N+](=O)[O-])cc1OCCCC(=O)O |
| 123 | C=CCc1ccc2oc(C(=O)OCC)c(C)c2c1O |
| 264 to 266 | COC(=O)c1ccc(C=C2CCn3c2nc2cc([N+](=O)[O-])ccc2c3=O)cc1 |
| 237 | Nc1cc(C(F)(F)F)c([N+](=O)[O-])cc1C(=O)O |
| 224 to 226 | CC1(N2Cc3cc(CNC(=O)c4ccc(OC(F)(F)F)cc4)ccc3C2=O)CCC(=O)NC1=O (stereo unspecified) |
| 207 | COc1cc(C(=O)O)ccc1Cc1c(Cl)n(C)c2cc(Cl)c(CCNC(=O)N(C)C)cc12 |
| 68.5 to 69.5 | COC(=O)CC1CCNC1 (stereo unspecified) |
| 103 to 104 | COC(=O)c1scc(-c2ccccc2)c1-c1ccc(SCOC(C)=O)c(F)c1 |
| 304 to 306 | O=C(O)c1ccc2c(c1)S(=O)(=O)c1ccccc1NC2 |
| 64 to 66 | O=C(CCCCl)Nc1ccccc1 |
| 173 to 174 | Cc1noc(-c2ccccc2)c1/C=C/C(=O)O |
| 159 to 161 | Cc1ccc(-n2nc(C(=O)CCCO)cc2-c2ccc(S(C)(=O)=O)cc2)cc1 |
| 215 | C#Cc1ccc(-c2nc(-c3ccccc3)nc(-c3ccc(C#C)cc3)n2)cc1 |
| 110 to 111 | COC(=O)Cc1cccc(OC)c1OCCCc1cc(O)nn1Cc1ccc(Cl)cc1Cl |
| 141 to 142 | CS(=O)(=O)c1ccc(-n2cncc2-c2ccc(OC(F)(F)F)cc2)cc1 |
| 121 to 122 | Nc1cc(C(F)(F)F)ccc1N(N)C=O |
| 206 to 208 | NS(=O)(=O)c1nc2ccc(OC(=O)Cc3ccc(Cl)cc3)cc2s1 |
| 159 to 161 | O=C(O)c1cccc2ccc(-c3ccccc3)nc12 |
| 173 | CC(C)c1ccc(N(Cc2cnn(C3CCCC3)c2)C(=O)C2CCCc3c(O)cccc32)cc1 (stereo unspecified) |
| 63 to 64 | Cc1cc(C#N)cc(CC#N)c1 |
| 114 to 119 | C[C@@H](n1cnc2cccc(Cl)c2c1=O)[C@](O)(Cn1cncn1)c1ccc(F)cc1F |

| SMILES | melting point [°C] |
| --- | --- |
| C[C@H](N)Cn1ncc2ccc3oc(C(=O)NCC4(O)CC4)cc3c21 | 77 to 79 |
